Tests used:
Type in all cases: in vivo
[1] = test system: Aphis gossypii; experiment: Soil treatment test on Aphis gossypii on cucumber (Test Example 9); details: 168 h, 5 ml treatment solution in contact with soil, seven days after putting insects, read-out: controlling value
Method: On the other hand, cucumber was planted in a polyethylene cup with a plurality of small holes on the bottom and grown until the first true leaf was spread. A cup in which cucumber was planted was put in a plastic cup with 5 ml of the test treatment solution, so that the soil in the cup was in contact with the treatment liquid. After five days, about 20Aphis gossypii were allowed to parasitize the cucumber, and seven days after putting insects, the number of Aphis gossypii was investigated, and the controlling value was calculated according to the following equation. Controlling value (%)={1−(Cb×Tai)/([…])}×100 In the equation, the symbols represent as follows. Cb: the number of insects in a non-treated section before treatment Cai: the number of insects in a non-treated section on observation Tb: the number of insects in a treated section before treatment Tai: the number of insects in a treated section on observation

[2] = test system: Musca domestica; experiment: Filter paper/sucrose bait death rate test on Musca domestica (Test Example 5); details: female imagoes of Musca domestica, 0.7 ml on filter paper, after 24 hours
Method in brief: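 Ten female imagoes were confined in a sealed cup over a filter paper treated with 0.7 ml of test solution and 30 mg sucrose bait. Mortality was scored at 24 h and expressed as percent of tested insects killed.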

[3] = test system: Blattella germanica; experiment: Knockdown spray test on Blattella germanica, 0.1% w/v oil formulation (Test Example 2); details: topical, 0.25 h, active ingredient 0.1% w/v, 1.5 ml sprayed, within 15 minutes, read-out: knockdown rate of the test insects within 15 minutes
Method in brief: (§1)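 Ten German cockroaches (5 males, 5 females) in a mesh-bottomed, butter-walled container were sprayed with 1.5 ml test solution from 60 cm at 0.42 kg/cm^2 inside a chamber.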

[4] = test system: Culex pipiens pallens; experiment: Knockdown spray test on adult Culex pipiens pallens (Test Example 4); details: topical, 0.25 h, active ingredient 0.1% w/v, 0.5 ml sprayed, within 15 minutes, read-out: knockdown rate of the test insects within 15 minutes
Method in brief: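 Knockdown counts were taken 2, 5 and 15 min after spraying and expressed as percent of the 10 adults tested. For the spray, 0.5 ml of solution was applied by spray gun (0.4 kg/cm^2) from 30 cm above a gauze-covered cup in a test chamber; the cup was taken out right after spraying.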

[5] = test system: Culex pipiens pallens; experiment: Larvicidal test on Culex pipiens pallens, one day (Test Example 6); details: 24 h; last-instar larvae of Culex pipiens pallens; 3.5 ppm in water; one day later; read-out: death rate
Method: Each of the formulations of Compounds of Present Invention (39), (63), (71), (72), (92), (93), (95), (106), (150), (171), (170), (181), (182), (183), (187), (188), (189), (190), (191), (192), (200), (201), (201), (234), (246), (290) and (299) obtained in Formulation Example 15 was diluted with water, so as to have a concentration of the active ingredient of 500 ppm, to prepare a test drug solution.
(§2) 20 last-instar larvae of Culex pipiens pallens were released into a liquid to which 0.7 ml of the above test drug solution was added to 100 ml of ion-exchanged water (a concentration of the active ingredient of 3.5 ppm). One day later, the life and death of the Culex pipiens pallens was examined, and the death rate was calculated. The death rate was calculated by the following equation.
(§3) Death rate (%)=(Number of dead insects/Number of tested insects)×100

[6] = test system: Plutella xylostella; experiment: Foliar spray test on Plutella xylostella on cabbage (Test Example 10); details: 120 h, third instar larvae of Plutella xylostella on cabbage, 500 ppm spray 20 ml/cup, after five days, read-out: controlling value
Method in brief: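 Cabbage at the third–fourth true-leaf stage sprayed with test solution at 20 ml/cup, dried, then infested with 10 third-instar larvae. Insects counted after five days; controlling value (%) calculated from treated and non-treated counts before treatment and at observation.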

[7] = test system: Spodoptera litura; experiment: Foliar spray test on Spodoptera litura on cabbage (Test Example 11); details: 96 h, fourth instar larvae of Spodoptera litura on cabbage, 500 ppm spray 20 ml/cup, after 4 days, read-out: controlling value
Method: On the other hand, cabbage was planted in a polyethylene cup, and grown until the third-fourth true leaf was spread. The test spray solution was sprayed to the cabbage at a ratio of 20 ml/cup. After the drug solution sprayed orn the cabbage was dried, 10 fourth instar larvae of Spodoptera litura were allowed to parasitize the cabbage. After 4 days, the number of surviving Spodoptera litura on the cabbage leaves was examined, and the controlling value was calculated according to the following equation. Controlling value (%)={1−(Cb×Tai)/([…])}×100 In the equation, the symbols represent as follows. Cb: the number of insects in a non-treated section before treatment Cai: the number of insects in a non-treated section on observation Tb: the number of insects in a treated section before treatment Tai: the number of insects in a treated section on observation

[8] = test system: Culex pipiens pallens; experiment: Larvicidal test on Culex pipiens pallens, eight days (Test Example 7); details: 192 h; last-instar larvae of Culex pipiens pallens; 3.5 ppm in water; eight days later; read-out: death rate
Method: as §2, with “Eight days” for “One day”
as §3

[9] = test system: Blattella germanica; experiment: Knockdown spray test on Blattella germanica, 2.0% w/v oil formulation (Test Example 1); details: topical, 0.25 h, active ingredient 2.0% w/v, 1.5 ml sprayed, within 15 minutes, read-out: knockdown rate of the test insects within 15 minutes
Method in brief: as §1

[10] = test system: Musca domestica; experiment: Knockdown spray test on adult Musca domestica (Test Example 3); details: topical, 0.25 h, active ingredient 2.0% w/v, 0.5 ml sprayed, within 15 minutes, read-out: knockdown rate of the test insects within 15 minutes
Method in brief: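 Ten adult house flies (5 male, 5 female) in a gauze-covered cup sprayed with 0.5 ml test solution from 30 cm at 0.9 kg/cm^2 inside a chamber, then removed. Knocked-down flies counted at 2, 5 and 15 min and expressed as % of insects tested.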

SMILES: CCCCc1noc(C(=O)NCC2CCOC2)n1 (centres unmarked) [(58), N-(tetrahydrofuran-3-ylmethyl)-3-butyl-1,2,4-oxadiazole-5-carboxamide]
- pest or weed control at 500 ppm [1]: ≥ 90%

SMILES: CCCCn1cc(C(=O)NCC2CCOC2)nn1 (centres unmarked) [(54), N-(tetrahydrofuran-3-ylmethyl)-1-butyl-1H-1,2,3-triazole-4-carboxamide]
- pest or weed control at 500 ppm [2]: ≥ 90%
- pest or weed control at 500 ppm [1]: ≥ 90%

SMILES: O=C(NCC1CCOC1)c1cc(COCc2ccc(Cl)c(Cl)c2)on1 (centres unmarked) [(72), N-(tetrahydrofuran-3-ylmethyl)-5-(3,4-dichlorobenzyloxymethyl)isoxazole-3-carboxamide]
- pest or weed control at 0.1 % strength [3]: ≥ 80%
- pest or weed control at 0.1 % strength [4]: ≥ 80%
- pest or weed control at 500 ppm [2]: ≥ 90%
- pest or weed control at 3.5 ppm [5]: ≥ 90%
- pest or weed control at 500 ppm [6]: ≥ 90%
- pest or weed control at 500 ppm [7]: ≥ 80%

SMILES: O=C(NCC1CCOC1)c1cc(CCCc2ccc(Cl)c(Cl)c2)on1 (centres unmarked) [(246), N-(tetrahydrofuran-3-ylmethyl)-5-[3-(3,4-dichlorophenyl)propyl]isoxazole-3-carboxamide]
- pest or weed control at 0.1 % strength [3]: ≥ 80%
- pest or weed control at 0.1 % strength [4]: ≥ 80%
- pest or weed control at 500 ppm [2]: ≥ 90%
- pest or weed control at 3.5 ppm [5]: ≥ 90%
- pest or weed control at 500 ppm [6]: ≥ 90%
- pest or weed control at 500 ppm [7]: ≥ 80%

SMILES: Cn1nc(COCc2ccccc2)cc1C(=O)NCC1CCOC1 (centres unmarked) [(52), N-(tetrahydrofuran-3-ylmethyl)-3-benzyloxymethyl-1-methyl-1H-pyrazole-5-carboxamide]
- pest or weed control at 500 ppm [1]: ≥ 90%

SMILES: O=C(NCC1CCOC1)c1cc(CCCCCO)on1 (centres unmarked) [(142), N-(tetrahydrofuran-3-ylmethyl)-5-(5-hydroxypentyl)isoxazole-3-carboxamide]
- pest or weed control at 500 ppm [1]: ≥ 90%

SMILES: O=C(NCC1CCOC1)c1cc(COc2cccc(OC(F)(F)F)c2)on1 (centres unmarked) [(200), N-(tetrahydrofuran-3-ylmethyl)-5-(3-trifluoromethoxyphenoxymethyl)isoxazole-3-carboxamide]
- pest or weed control at 0.1 % strength [3]: ≥ 80%
- pest or weed control at 0.1 % strength [4]: ≥ 80%
- pest or weed control at 500 ppm [2]: ≥ 90%
- pest or weed control at 3.5 ppm [5]: ≥ 90%
- pest or weed control at 3.5 ppm [8]: ≥ 90%
- pest or weed control at 500 ppm [7]: ≥ 80%

SMILES: O=C(NCC1CCOC1)c1cc(COCc2ccc(C(F)(F)F)cc2)on1 (centres unmarked) [(63), N-(tetrahydrofuran-3-ylmethyl)-5-(4-trifluoromethylbenzyloxymethyl)isoxazole-3-carboxamide]
- pest or weed control at 2 % strength [9]: ≥ 80%
- pest or weed control at 2 % strength [10]: ≥ 80%
- pest or weed control at 0.1 % strength [4]: ≥ 80%
- pest or weed control at 3.5 ppm [5]: ≥ 90%
- pest or weed control at 3.5 ppm [8]: ≥ 90%

SMILES: CCCCc1nc(C(=O)NCC2CCOC2)no1 (centres unmarked) [(57), N-(tetrahydrofuran-3-ylmethyl)-5-butyl-1,2,4-oxadiazole-3-carboxamide]
- pest or weed control at 500 ppm [1]: ≥ 90%

Reference: patent US20150344466A1 (SUMITOMO CHEMICAL COMPANY, LIMITED, priority 2013, published 2015)
